Assay results from US8883763B2 (Universite Joseph Fourier, priority 2010, dated 2014).

Key:
PP1α (PP1CA) = target: T1, PP1α (PP1CA) (Oryctolagus cuniculus, UniProt P62139); experiment: Protein phosphatase test (PP1 activity, DiFMUP fluorescent substrate); assay type: biochemical; conditions: PP1CA at 80 mU, fluorescent substrate (50 μM), molecules from 50 μM to 50 nM; read-out: PP1 Inhibition IC50
T1 construct: purchased New England Biolabs P0754
Procedure: FIG. 13 presents the graph showing the inhibition of the PP1Cα activity by compound 6 in vitro. PP1Cα (New England Biolabs, 30 mU/well) was incubated in the presence of compound 6 at different concentrations and a fluorescent substrate, diFMUP.
Determination of the 1050 was carried out with PP1CA at 80 mU in the presence of a fluorescent substrate
(50 μM) and different concentrations of molecules from 50 μM to 50 nM.
For the activity tests, PP1α (New England Biolabs # P0754) was used at a final concentration of 30 mU or 80 mU for the screening of all the analogues. 6,8-difluoro-4-methylumbelliferyl phosphate (DiFMUP, Invitrogen # D6567) was used as fluorescent substrate at a concentration of […]. All the tests were carried out in a final volume of 100 μl, at 37° C. in 96-microwell plates (Greiner #655096).
Compound 6, combretastatin A4 (CA-4) as well as all the analogues were diluted in 50 μl of PP1 buffer (100 mM Tris-HCl, pH 7.5, 4 mM DTT, 0.2 mM EDTA, 0.5 mM MnCl2) from 50 μM to 50 nM. Corresponding quantities of DMSO were added to control wells. PP1α (30 or 80 mU in 30 μl of PP1 buffer) was added to each well. After incubating for 15 minutes at AT, the substrate was added (in 20 μl of PP1 buffer). After incubating for 20 minutes at 37° C., the fluorescence was measured in a plate fluorometer at 355-460 nm in order to assay the phosphatase activity. The test was carried out three times in duplicate for each condition.

HeLa cells = experiment: Indirect immunofluorescence: effect on HeLa cells (mitotic arrest, microtubule depolymerization); assay type: cell-based, human; parameters: key to Effect on Hela at 25 μM / Effect on Hela at 100 μM / Effect on Hela at 50 and 100 μM / Effect on Hela at 50 μM: —: −: no activity on the cells at 25 μM (if there is an effect at high concentrations, this is specified in the table).; *: weak activity (MA and/or slight depolymerization of the MTs and/or slight inhibition of proliferation),; **: average activity (MA and/or moderate depolymerization of the MTs and/or moderate inhibition of proliferation),; ***: strong activity (MA and/or pronounced depolymerization of the MTs and/or pronounced inhibition of proliferation),; ****: very strong activity (MA and/or very pronounced depolymerization of the MTs and/or strong inhibition of proliferation); conditions: 24 hours; for Effect on Hela at 25 μM: mitotic index and/or depolymerization of the MTs
Procedure: The cells were cultured on slides in 24-well plates and incubated for 24 hours with molecule 6 at different concentrations from 1 to 10 μM.
Corresponding quantities of DMSO were added to the culture medium in the control wells.
The cells were fixed in a solution of PBS with 4% paraformaldehyde (PFA) and 0.1% glutaraldehyde (GA), for 15 minutes and centrifuged at 300 g for the last 10 minutes of the fixing. The slides were rinsed in PBS and the free aldehyde groups were reduced by two successive 5-minute incubations in PBS containing 1 mg/ml of NaBH4.
After one washing with PBS then another with PBST (PBS with 0.5% triton-X-100), the cells are incubated for 30 minutes at ambient temperature with anti α-tubulin monoclonal antibody solution (DM1A clone, Sigma # T6199) diluted to 1:200 in PBST. After 3 10-minute washings with PBST, the cells are incubated for 30 minutes at ambient temperature in a solution of goat anti-mouse polyclonal antibodies coupled with Alexa 488 (1:1000, Molecular Probes # A-11029) and phalloidin coupled with Texas red to label the actin (1:2000, Molecular Probes # T7471), in PBST also containing Hoechst 33258 (1 μg/ml) for labelling the DNA. After 3 10-minute washings in PBST, the slides are mounted on plates in Fluorsave™ mounting medium (Calbiochem #345789) and are observed and analyzed using an Axiovert 200M inverted fluorescence microscope (Zeiss®). The images are produced with a Plan-Apochromat 63× oil objective (Zeiss®) by means of a Coolsnap HQ camera (Roper Scientifics®) and with Metamorph acquisition software (Universal Imaging™ Corporation).
In order to evaluate the effect of the analogues of compound 6 on PHFs and HeLa cells, the immunofluorescence technique described above was used and adapted to a 96-well dish format. The cells were seeded in glass-bottomed 96-well dishes and incubated for 24 hours in the presence of different concentrations of molecules from 100 μM to 50 nM. And in the same way as described above, the cells were fixed and immunolabelled. Analysis of the phenotypes as well as counting the mitotic cells were carried out with the same microscope but using a ×40 objective (Olympus). The molecules were compared with each other with respect to the mitotic arrest induced on PHFs and HeLa cells at 25 and 0.3 μM.
The mitotic index and/or the depolymerization of the MTs were evaluated at 25 μM.

bovine brain tubulin = experiment: In vitro tubulin polymerization test (turbidimetry at 350 nm); assay type: biochemical; conditions: molecules at 50 μM, calculated at t=3000 s, DMSO control = 100%
Procedure: Tubulin was purified from bovine brain using the polymerization-depolymerization process described by (Castoldi M and Popov A V. Protein Expr Purif. 2003, 32(1): pp 83-8).
The in vitro tubulin polymerization tests (at 50 μM) were carried out in the presence of GTP 1 mM in BRB80 buffer (80 mM K-PIPES pH 6.8, 1 mM MgCl2, 1 mM EGTA) at 37° C. The tests were carried out in 96-microwell plates (half-wells) (Costar plates, Corning #3695), in triplicate with a final volume of 70 μl. Tubulin assembly was carried out in the presence of compound 6 or its analogues (all used at a concentration of 50 μM) and was monitored by turbidimetry measurement at 350 nm using a spectrophotometer (Spectramax More, Molecular Devices).
Measurement of the effect of a molecule on polymerization was calculated at t=3000 s taking the value of the control at the same time as being equal to 100%.

HMEC cells = experiment: Proliferation of HMEC cells (GI50); assay type: cell-based; conditions: Homo sapiens, 120 h, 50 μM to 1 nM for 5 days
Procedure: The HMECs were seeded at 10% confluence and incubated with the molecules at different concentrations (from 50 μM to 1 nM) for 5 days. The GI50 (50% Growth Inhibition) defines the concentration inducing a 50% reduction in proliferation with respect to the control.

T1 sequence (P62139 whole entry): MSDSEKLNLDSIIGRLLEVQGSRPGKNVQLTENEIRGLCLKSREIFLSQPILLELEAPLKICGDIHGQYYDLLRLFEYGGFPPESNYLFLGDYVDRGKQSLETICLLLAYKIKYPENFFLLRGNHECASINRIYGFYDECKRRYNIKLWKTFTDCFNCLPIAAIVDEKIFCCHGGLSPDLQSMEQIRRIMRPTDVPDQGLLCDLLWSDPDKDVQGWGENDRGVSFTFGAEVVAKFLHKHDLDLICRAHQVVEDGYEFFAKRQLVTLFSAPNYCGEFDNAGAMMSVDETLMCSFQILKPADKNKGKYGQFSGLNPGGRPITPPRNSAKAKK

Structure (SMILES) | IC50 (PP1α (PP1CA)) [µM] | melting point [°C] | Effect on Hela at 25 μM (HeLa cells) | Effect on Hela at 100 μM (HeLa cells) | Tubulin polymerization inhibition (bovine brain tubulin) | GI50 (HMEC cells) [µM] | Effect on Hela at 50 and 100 μM (HeLa cells; 50 and 100 μM)
COc1ccc(-c2cc3ccc(OC)cc3c(=S)[nH]2)cc1 [Compound 12, 7-Methoxy-3-(4-methoxyphenyl)isoquinoline-1(2H)-thione] | ≤ 9 | 188 to 190 | — | * | ++ ((++) signifies that the molecule induces tubulin assembly inhibition in vitro comprised between 26 and 50% of the DMSO control.) | 1 to 25 | 
COc1ccc(-c2cc3ccc(OC)cc3c(S(=O)(=O)O)n2)cc1 [Compound 13, 7-methoxy-3-(4-methoxyphenyl)isoquinoline-1-sulphonic acid] | > 50 | 226 to 228 | — | * | ++ ((++) signifies that the molecule induces tubulin assembly inhibition in vitro comprised between 26 and 50% of the DMSO control.) | > 50 | 
COc1ccc(-c2[nH]c(=O)c3cc(OC)ccc3c2Br)cc1 [Compound 15, 4-Bromo-7-methoxy-3-(4-methoxyphenyl)isoquinoline-1(2H)-one] | > 50 | 240 to 242 | *** |  | ++ ((++) signifies that the molecule induces tubulin assembly inhibition in vitro comprised between 26 and 50% of the DMSO control.) | 0.1 to 1 | 
COc1ccc(-c2[nH]c(=O)c3cc(OC)ccc3c2I)cc1 [Compound 16, 4-Iodo-7-methoxy-3-(4-methoxyphenyl)isoquinoline-1(2H)-one] | > 50 | 216 to 218 | *** |  | +++ ((+++) signifies that the molecule induces tubulin assembly inhibition in vitro of more than 50% with respect to the DMSO control.) | 0.1 to 1 | 
COc1ccc(-c2nc(SCc3ccccc3)c3cc(OC)ccc3c2[N+](=O)[O-])cc1 [Compound 21, 1-(Benzylthio)-7-methoxy-3-(4-methoxyphenyl)-4-nitroisoquinoline] | 25 to 50 | 148 to 150 | — |  | +++ ((+++) signifies that the molecule induces tubulin assembly inhibition in vitro of more than 50% with respect to the DMSO control.) | > 50 | 
COc1ccc(-c2[nH]c(=O)c3cc(OC)ccc3c2N(C)C)cc1 [Compound 23, 4-(Dimethylamino)-7-methoxy-3-(4-methoxyphenyl)isoquinoline-1(2H)-one] | > 50 | 183 to 185 | *** |  | + ((+) signifies that the molecule induces tubulin assembly inhibition in vitro comprised between 6 and 25% of the DMSO control.) | 1 to 25 | 
COc1ccc(-c2[nH]c(=O)c3cc(OC)ccc3c2NC=O)cc1 [Compound 24, N-(7-Methoxy-3-(4-methoxyphenyl)-1-oxo-1,2-dihydroisoquinoline-4-yl)methanamide] | > 50 | > 270 | **** |  | + ((+) signifies that the molecule induces tubulin assembly inhibition in vitro comprised between 6 and 25% of the DMSO control.) | 1 to 25 | 

Now from value to compound, other results behind:

IC50 (PP1α (PP1CA)) [µM] | melting point [°C] | Structure (SMILES) | Effect on Hela at 25 μM (HeLa cells) | Effect on Hela at 100 μM (HeLa cells) | Tubulin polymerization inhibition (bovine brain tubulin) | GI50 (HMEC cells) [µM] | Effect on Hela at 50 and 100 μM (HeLa cells; 50 and 100 μM)
> 50 | 196 to 198 | COc1ccc(-c2nc(Cl)c3cc(OC)ccc3c2[N+](=O)[O-])cc1 [Compound 17, 1-Chloro-7-methoxy-3-(4-methoxyphenyl)-4-nitroisoquinoline] | — |  | ++ ((++) signifies that the molecule induces tubulin assembly inhibition in vitro comprised between 26 and 50% of the DMSO control.) | 25 to 50 | 
10 to 24 | 226 to 228 | COc1ccc(-c2[nH]c(=S)c3cc(OC)ccc3c2[N+](=O)[O-])cc1 [Compound 18, 7-Methoxy-3-(4-methoxyphenyl)-4-nitroisoquinoline-1(2H)-thione] | **** |  | +++ ((+++) signifies that the molecule induces tubulin assembly inhibition in vitro of more than 50% with respect to the DMSO control.) | 1 to 25 | 
25 to 50 | 176 to 178 | COc1ccc(-c2nc(OC)c3cc(OC)ccc3c2[N+](=O)[O-])cc1 [Compound 19, 1,7-Dimethoxy-3-(4-methoxyphenyl)-4-nitroisoquinoline] | — | ** | + ((+) signifies that the molecule induces tubulin assembly inhibition in vitro comprised between 6 and 25% of the DMSO control.) | > 50 | 
25 to 50 | 169 to 171 | COc1ccc(-c2nc(Sc3ccccc3)c3cc(OC)ccc3c2[N+](=O)[O-])cc1 [Compound 20, 7-Methoxy-3-(4-methoxyphenyl)-4-nitro-1-(phenylethio)isoquinoline] | — |  | ++ ((++) signifies that the molecule induces tubulin assembly inhibition in vitro comprised between 26 and 50% of the DMSO control.) | > 50 | *
≤ 9 | 199 to 201 | COc1ccc(-c2nc(NCc3ccccc3)c3cc(OC)ccc3c2[N+](=O)[O-])cc1 [Compound 22, N-Benzyl-N-[7-methoxy-3-(4-methoxyphenyl)-4-nitroisoquinoline-1-yl]-amine] | — |  | + ((+) signifies that the molecule induces tubulin assembly inhibition in vitro comprised between 6 and 25% of the DMSO control.) | > 50 | 
